Measurements taken from patent US4849425A, “Readily absorbable pharmaceutical composition” (Ishihara Sangyo Kaisha Ltd., priority 1985, dated 1989).

Test: Absorbability through the gut, oral, aqueous and non-aqueous dispersing solvents, plasma concentration in rats (Test Example 5)
Format: in vivo, Wistar male rats
Settings: rat; for absorption: oral; for concentration at 1 h / concentration at 3 h / concentration at 5 h / concentration at 24 h: plasma, po, 20 mg/kg
Method: 20 mg of Compound No. 3 was taken into a mortar, and 5 ml of an aqueous solution containing 1.7% of β-type cyclodextrin or 2% or 40% of dimethyl β-type cyclodextrin was added under stirring to obtain a suspension of Compound No. 3. The suspension was orally administered by an oral sonde to a group of three Wistar male rats (body weight: 200-250g). The dose of Compound No. 3 was 20 mg/kg rat body weight. Further, Compound No. 3 was likewise suspended in an aqueous solution containing 0.5% of sodium salt of carboxymethyl cellulose, and the suspension was used as the control ( in FIG. 3). After the administration, the blood was periodically sampled, and the plasma was separated. After the removal of protein by acetonitrile, Compound No. 3 in the plasma was quantitatively analyzed by a high speed liquid chromatography as shown in Test Example 1.
The changes with time of the concentration of Compound No. 3 in the plasma after the oral administration were studied in the same manner as in Test Example 3 by using an aqueous solution of 10% (weight/volume) hydroxypropyl cellulose (HPC-L, manufactured by Nippon Soda Co., Ltd.), 2.5% (weight/volume) methyl cellulose (Metrose SM 15,manufactured by Shin-Etsu Chemical Co., Ltd.), 10% (weight/volume) hydroxypropylmethyl cellulose (Metrose TC5R, manufactured by Shin-Etsu Chemical Co., Ltd.), 2.5% (weight/volume) sodium salt of carboxymethyl cellulose (manufactured by Wako Junyaku K.K.), 10% (weight/volume) sucrose fatty acid ester (P1570, manufactured by Hishito K.K.) or 10% (weight/volume) pluronic F 68 (manufactured by Asahi Denka Kogyo K.K.), as an aqueous dispersing solvent for Compound No. 3, and medium-chain length fatty acid triglyceride (ODO, manufactured by Nisshin Seiyu K.K.), ODO containing 5% (weight/volume) sucrose fatty acid ester (S-370F, manufactured by Hishito K.K.), or a refined soybean oil (The Green Cross Corporation) or refined sesame oil (Takemoto Yushi K.K.) containing 5% (weight/volume) of S-370F, as a non-aqueous dispersing solvent, and an aqueous solution of 50% (weight/volume) dimethyl β-type cyclodextrin and an aqueous solution of 0.5% (weight/volume) sodium carboxymethyl cellulose, as the control.

[1] = 0.5% (w/v) sodium salt of carboxymethyl cellulose (control), oral 20 mg/kg
[2] = 2.5% (w/v) methyl cellulose, oral 20 mg/kg
[3] = 2.5% (w/v) sodium salt of carboxymethyl cellulose, oral 20 mg/kg
[4] = 5% (w/v) Pluronic F31/ODO, oral 20 mg/kg
[5] = 5% (w/v) sucrose fatty acid ester/ODO, oral 20 mg/kg
[6] = 5% (w/v) sucrose fatty acid ester/refined sesame oil, oral 20 mg/kg
[7] = 5% (w/v) sucrose fatty acid ester/refined soybean oil, oral 20 mg/kg
[8] = 10% (w/v) Pluronic F68, oral 20 mg/kg
[9] = 10% (w/v) hydroxypropyl cellulose, oral 20 mg/kg
[10] = 10% (w/v) hydroxypropylmethyl cellulose, oral 20 mg/kg
[11] = 10% (w/v) sucrose fatty acid ester, oral 20 mg/kg
[12] = 50% (w/v) dimethyl β-type cyclodextrin, oral 20 mg/kg
[13] = medium-chain length fatty acid triglyceride (ODO), oral 20 mg/kg

O=C(NC(=O)c1ccccc1[N+](=O)[O-])Nc1ccc(Oc2ncc(Br)cn2)c(Cl)c1 [Compound No. 3, N-(2-nitrobenzoyl)-N'-[4-(5-bromo-2-pyrimidinyloxy)-3-chlorophenyl]urea]
absorption (50% (w/v) dimethyl β-type cyclodextrin, among the aqueous dispersing solvents): highest absorption
absorption (ODO containing 5% (w/v) Pluronic F32): high absorption
concentration at 1 h [1]: 30 ng/mL
concentration at 3 h [1]: 100 ng/mL
concentration at 5 h [1]: 150 ng/mL
concentration at 24 h [1]: 10 ng/mL
concentration at 1 h [2]: 60 ng/mL
concentration at 3 h [2]: 110 ng/mL
concentration at 5 h [2]: 110 ng/mL
concentration at 24 h [2]: 30 ng/mL
concentration at 1 h [3]: 40 ng/mL
concentration at 3 h [3]: 110 ng/mL
concentration at 5 h [3]: 90 ng/mL
concentration at 24 h [3]: 90 ng/mL
concentration at 1 h [4]: 100 ng/mL
concentration at 3 h [4]: 200 ng/mL
concentration at 5 h [4]: 220 ng/mL
concentration at 24 h [4]: 470 ng/mL
concentration at 1 h [5]: 60 ng/mL
concentration at 3 h [5]: 180 ng/mL
concentration at 5 h [5]: 200 ng/mL
concentration at 24 h [5]: 220 ng/mL
concentration at 1 h [6]: 140 ng/mL
concentration at 3 h [6]: 490 ng/mL
concentration at 5 h [6]: 570 ng/mL
concentration at 24 h [6]: 370 ng/mL
concentration at 1 h [7]: 120 ng/mL
concentration at 3 h [7]: 500 ng/mL
concentration at 5 h [7]: 550 ng/mL
concentration at 24 h [7]: 390 ng/mL
concentration at 1 h [8]: 110 ng/mL
concentration at 3 h [8]: 190 ng/mL
concentration at 5 h [8]: 230 ng/mL
concentration at 24 h [8]: 120 ng/mL
concentration at 1 h [9]: 50 ng/mL
concentration at 3 h [9]: 120 ng/mL
concentration at 5 h [9]: 110 ng/mL
concentration at 24 h [9]: 40 ng/mL
concentration at 1 h [10]: 140 ng/mL
concentration at 3 h [10]: 310 ng/mL
concentration at 5 h [10]: 280 ng/mL
concentration at 24 h [10]: 100 ng/mL
concentration at 1 h [11]: 40 ng/mL
concentration at 3 h [11]: 180 ng/mL
concentration at 5 h [11]: 180 ng/mL
concentration at 24 h [11]: 240 ng/mL
concentration at 1 h [12]: 280 ng/mL
concentration at 3 h [12]: 580 ng/mL
concentration at 5 h [12]: 490 ng/mL
concentration at 24 h [12]: 360 ng/mL
concentration at 1 h [13]: 120 ng/mL
concentration at 3 h [13]: 170 ng/mL
concentration at 5 h [13]: 210 ng/mL
concentration at 24 h [13]: 240 ng/mL
absorption (refined soybean oil or refined sesame oil containing 5% (w/v) sucrose fatty acid ester, among the non-aqueous dispersing solvents): high absorption almost equal to dimethyl β-type cyclodextrin
